# Calls of active or inactive are those of the source.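 The calls were made as follows: active = half-maximal concentration for changing protein binding to DNA, from the fitted dose curve, below 10 micromolar; inactive = the rest.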
# Target: Nuclear receptor subfamily 1 group D member 1 (Homo sapiens) (UniProt P20393)
# Test: Rev-erbα–DNA interaction modulators – biochemical, FITC-DNA, fluorescence polarization, dose response (AID 1259321)
# Details: Rev-erb alpha-FITC-DNA binding
# Nuclear receptor subfamily 1 group D member 1 (Homo sapiens), sequence (P20393 whole entry, looked up): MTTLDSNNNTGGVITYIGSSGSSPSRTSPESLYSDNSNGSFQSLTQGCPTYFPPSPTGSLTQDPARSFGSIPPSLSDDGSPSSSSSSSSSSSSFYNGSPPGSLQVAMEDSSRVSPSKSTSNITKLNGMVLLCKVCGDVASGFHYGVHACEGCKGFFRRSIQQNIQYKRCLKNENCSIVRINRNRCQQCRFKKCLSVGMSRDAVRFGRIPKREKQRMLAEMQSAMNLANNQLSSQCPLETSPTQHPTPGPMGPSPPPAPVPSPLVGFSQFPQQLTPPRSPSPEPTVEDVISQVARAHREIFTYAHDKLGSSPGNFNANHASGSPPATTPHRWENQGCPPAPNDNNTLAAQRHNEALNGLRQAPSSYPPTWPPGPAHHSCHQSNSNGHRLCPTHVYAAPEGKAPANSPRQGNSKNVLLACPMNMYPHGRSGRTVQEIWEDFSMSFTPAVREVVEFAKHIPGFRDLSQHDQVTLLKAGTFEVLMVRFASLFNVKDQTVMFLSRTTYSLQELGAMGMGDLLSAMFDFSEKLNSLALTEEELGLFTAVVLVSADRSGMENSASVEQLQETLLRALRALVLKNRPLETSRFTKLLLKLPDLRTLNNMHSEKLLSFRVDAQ
row,SMILES,IC50
1,Cc1cc(C)c2nc(SCC(=O)N3CC(=O)Nc4ccccc43)c(C#N)cc2c1,7.22 µM
2,COC(=O)c1ccc(NC(=O)c2ccc3c(c2)C(=O)N(C)C3=O)cc1,4.43 µM
3,CC(C)NC(=O)CSc1nc(-c2cccs2)cc(-c2ccccc2)c1C#N,3.27 µM
4,O=C(CSc1nnc2scc(-c3ccccc3)n12)Nc1nsc(-c2ccccc2)n1,> 40 µM (inactive)
5,Cc1ccc(-n2c(O)c(/C=N/c3ncc(Br)cc3Br)c(=O)[nH]c2=O)cc1,inactive
6,COc1cc(OC)c(N(C)S(=O)(=O)c2cccc(C(=O)OCc3c(C)noc3C)c2)cc1Cl,5.12 µM
7,COC(=O)c1ccccc1NC(=O)c1cn(-c2ccc(C)c(C)c2)c(=O)c2ccccc12,inactive
8,Oc1c(C=Nc2cccc3cccnc23)sc2ccccc12,8.64 µM
9,CN1CCS/C1=C/C=C1/SC(=S)N(Cc2ccccc2)C1=O,inactive
10,CCCCN1C(=O)/C(=C/C=C2\Oc3ccccc3N2CC)SC1=S,4.41 µM
11,COc1cc(C(=O)Nc2cccc(-c3nc4cc(C)ccc4o3)c2)cc(OC)c1OC,4.32 µM
12,COc1ccc(-c2nc(NC(=O)c3ccc(OCC(=O)Nc4ccc(F)cc4)c(OC)c3)sc2C)cc1,> 40 µM (inactive)
13,Cc1cccc(Nc2nn3c(=O)c4ccccc4nc3s2)c1,4.11 µM
14,Cc1sc2nc(Cc3ccccc3)[nH]c(=O)c2c1-c1ccccc1,> 40 µM (inactive)
15,CCN(CC)S(=O)(=O)c1ccc(N2CCCCC2)c(NC(=O)C2CSC3(C)CCC(=O)N23)c1 (stereo unspecified),inactive
16,CCN(CC)c1ccc(/C=C(\C#N)C(=O)c2ccc(Br)cc2)cc1,inactive
17,Cc1nc2nc(SCC(=O)c3ccccc3)[nH]c2cc1Br,> 40 µM (inactive)
18,O=C(c1cc2cc(Cl)ccc2[nH]1)N1CCN(c2ccccn2)CC1,> 40 µM (inactive)
19,COC(=O)c1cc2cc(Cl)ccc2nc1SC,2.53 µM
20,CCc1cc2cc(C)cc(C)c2nc1SCC(=O)N1CCCC1,> 40 µM (inactive)
21,CCCNC(=O)Nc1ccc2c(c1)C(=O)N(C)[C@H]1CC[C@H](CC(=O)NCC3CCCCC3)O[C@@H]1CO2,> 40 µM (inactive)

row,SMILES,IC50
1,CCOc1ccc(NC(=O)CSc2ncnc3c2sc2ccccc23)cc1,6.32 µM
2,COc1ccc(Cl)cc1C(=O)Nc1cccc(-c2ccc3nncn3n2)c1,7.26 µM
3,Cc1ccc2nc(N3CCN(c4cccc(C)c4C)CC3)c3nnnn3c2c1,7.32 µM
4,Cc1nn2c(N)c(C#N)cnc2c1-c1ccc(Cl)cc1,6.12 µM
5,COc1ccc(NC(=O)NNC(=O)COc2ccc3cc(Br)ccc3c2)cc1OC,8.29 µM
6,CCc1nnc(NS(=O)(=O)c2ccc(Nc3ccc([N+](=O)[O-])c4nonc34)cc2)s1,9.46 µM
7,Cc1ccc(C)c(Nc2nc3c(S(=O)(=O)c4ccccc4)nnn3c3ccccc23)c1,8.48 µM
8,COc1ccccc1N/C(N)=N/c1nc(CSc2ccc(C)cc2)cc(=O)[nH]1,4.19 µM
9,CCCC(Oc1ccc(Br)cc1)c1nc2c3cc(OC)c(OC)cc3nc(=S)n2[nH]1 (stereo unspecified),> 40 µM (inactive)
10,CN1C(=O)C(=Cc2ccc(N3CCCCC3)o2)C(=O)N(C)C1=S,inactive
11,Brc1cc(Br)c2ncnc(N3CCCCC3)c2c1,0.989 µM
12,CCOc1ccc(OCC)c(NC(=O)c2[nH]c(C)c(C(C)=O)c2C)c1,3.56 µM
13,CC(=O)c1ccc(N2CCN(c3ccc4cc(S(=O)(=O)N5CCC(C)CC5)ccc4n3)CC2)cc1,8.62 µM
14,COc1cc(OC)cc(-c2c(Sc3ccccc3)c3cc(-c4ccc(SC)cc4)ccc3n2C)c1,5.97 µM
15,CCCn1c(N)c(C(=O)CSc2nc(C)nc3sc(C)c(C)c23)c(=O)[nH]c1=O,> 40 µM (inactive)
16,CC1=NCCN1S(=O)(=O)c1c(C(C)C)cc(C(C)C)cc1C(C)C,> 40 µM (inactive)
17,CN1C(=O)c2cccc3c(N)ccc(c23)C1=O,inactive
18,Cc1ccc2c3c(c(SCC(=O)Nc4nonc4C)nc2c1)CCCC3,> 40 µM (inactive)
19,O=C(Nc1ccc2oc(-c3cccc(F)c3)nc2c1)c1ccccc1F,2.87 µM
20,COc1ccccc1NC(=O)COC(=O)c1ccc2c(c1)OCCO2,1.01 µM

# Source: PubChem BioAssay AID1259321 (Sanford-Burnham Center for Chemical Genomics, 2017)
